Earlier results in US10751019B2, “Determining a brain condition using early time frame PET image analysis” (ADM DIAGNOSTICS, LLC, priority 2015, dated 2020).

Conditions: PET tracer in brain, time after tracer injection; varies with tracer, region of accumulation and target load

time to reach equilibrium	SMILES
about 45 minutes	[11CH3]Nc1ccc(-c2nc3ccc(O)cc3s2)cc1 [11C-PiB]
40 to 45 min	CNc1ccc(/C=C/c2ccc(OCCOCCOCCF)nc2)cc1 [florbetapir]
about 80 minutes	CNc1ccc(-c2nc3ccc(O)cc3s2)cc1F [flutemetamol]
